# “Also recorded” adds a separate entry of the source.
# Key:
# [1] = tested on: mTORC2; conditions: cited from earlier work
# [2] = tested on: mTORCI; conditions: cited from earlier work
# [3] = tested on: Human serum albumin (HSA); conditions: cited from earlier work
# [4] = tested on: human plasma proteins; conditions: cited from earlier work
# [5] = tested on: soft-tissue sarcoma; conditions: single agent pazopanib, soft-tissue sarcoma patients; cited from earlier work
# [6] = Phase I study of oral pazopanib and intravenous nab-sirolimus: safety (adverse events, dose-limiting toxicity, recommended dose); assay type: in vivo, human; conditions: by mouth daily, in combination with nab-sirolimus 30 mg/m^2
# From the text: This was a phase I study designed to determine the safety and feasibility of a combination of oral pazopanib hydrochloride and intravenous nab-sirolimus. To obtain preliminary information regarding efficacy, the study had limited enrollment to those patients with advanced/unresectable STS for whom single agent pazopanib was indicated as a therapy.
# The primary endpoint of the study was the determination of a maximum-tolerated dose (MTD) and recommended Phase 2 dose of nab-sirolimus combined with pazopanib. Secondary endpoints included characterization of adverse events of the nab-sirolimus/pazopanib combination and descriptive characterization of clinical benefit of the nab-sirolimus/pazopanib combination (objective responses, progression-free survival duration, and clinical benefit rates at 3 and 6 months). Correlative endpoints were included to evaluate the correlation of clinical benefit with baseline mTOR pathway activation status, as assessed by immunohistochemistry for phosphorylated-S6 ribosomal protein, correlation of clinical benefit with baseline tumoral expression of Serum Protein Acidic and Rich in Cysteine (SPARC)/Osteonectin, as assessed by immunohistochemistry, and pharmacokinetics of nab-sirolimus in combination with pazopanib.
# If no DLT occurred after two doses, escalation to the next dose level was permitted. […]
smiles,measurement,setting,value
COc1cccc2cc(-c3nc([C@H]4CC[C@H](C(=O)O)CC4)n4ncnc(N)c34)[nH]c12 [OSI-027],IC50,[1],65 nM
same,IC50,[2],22 nM
"CO[C@H]1C[C@@H]2CC[C@@H](C)[C@@](O)(O2)C(=O)C(=O)N2CCCC[C@H]2C(=O)O[C@H]([C@H](C)C[C@@H]2CC[C@@H](O)[C@H](OC)C2)CC(=O)[C@H](C)/C=C(\C)[C@@H](O)[C@@H](OC)C(=O)[C@H](C)C[C@H](C)/C=C/C=C/C=C/1C [Rapamycin, rapamycin]",binding to HSA,[3],bind HSA
CC(=O)O[C@@]12CO[C@@H]1C[C@H](O)[C@@]1(C)C(=O)[C@H](O)C3=C(C)[C@@H](OC(=O)[C@H](O)[C@@H](NC(=O)OC(C)(C)C)c4ccccc4)C[C@@](O)([C@@H](OC(=O)c4ccccc4)[C@H]21)C3(C)C [docetaxel],binding to human plasma proteins,[4],bind to human plasma proteins
Cc1ccc(Nc2nccc(N(C)c3ccc4c(C)n(C)nc4c3)n2)cc1S(N)(=O)=O [pazopanib],overall survival compared to placebo control,[5],did not have a meaningful improvement in overall survival rate; also recorded: not found to provide a significant difference in overall survival
same,response rate,[5],~6%
same,Recommended Phase 2 dose of pazopanib,[6],400 mg
CC(C)c1cccc(C(C)C)c1O [propofol],binding to HSA,[3],bind HSA
